Some test systems named below: SF-539 CNS; HCT-116 colon; SNB-75 CNS; NCI-H23 lung; TK-10 renal; MCF7 breast; OVCAR-3 ovarian; MALME-3M melanoma; K-562 leukemia; PC-3 prostate.
Assay in all cases: NCI anticancer screen, dose series, 48 h

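How tested: cells in 96-well plates exposed to compound for 48 hours at five concentrations. GI50: concentration for 50% inhibition of growth. The concentration for full growth arrest is given as TGI.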

In the case of `CC(C)(C)CN1CCn2c(nc3c(N)nccc32)S1`, the GI50 is 18.2 µM in the assay on SF-539 CNS; 4.61 µM in the assay on HCT-116 colon; 51.5 µM in the assay on SNB-75 CNS; 5.17 µM with NCI-H23 lung; 16.6 µM with TK-10 renal; 3.97 µM with MCF7 breast. Moreover, the GI50 with OVCAR-3 ovarian is 12.3 µM; with MALME-3M melanoma, 7.72 µM; in the assay with K-562 leukemia it was 4.64 µM; in the assay with PC-3 prostate, 11 µM. Further, the TGI in the assay with SF-539 CNS was 78.9 µM; in the assay with HCT-116 colon it was 17.1 µM; with SNB-75 CNS, over 100 µM; in the assay on NCI-H23 lung it was 34 µM; with TK-10 renal it was over 100 µM; in the assay on MCF7 breast it was 37 µM. Also, the TGI was 29.3 µM with OVCAR-3 ovarian, 41.3 µM in the assay with MALME-3M melanoma, 67.7 µM in the assay with K-562 leukemia and over 100 µM in the assay with PC-3 prostate.
Turning to `CN1CCC(n2cnc(-c3ccc(F)cc3)c2-c2ccnc(N)n2)CC1`, the GI50 in the assay on SF-539 CNS was 14.2 µM; in the assay on HCT-116 colon, 8.19 µM; in the assay on SNB-75 CNS, 10 µM; with NCI-H23 lung, 10.6 µM; in the assay with TK-10 renal, 7.89 µM; with MCF7 breast, 1.32 µM. Also, the GI50 in the assay on OVCAR-3 ovarian was 11 µM; in the assay on MALME-3M melanoma, 8.77 µM; in the assay on K-562 leukemia it was 11.6 µM; with PC-3 prostate, 9.28 µM. Besides, the TGI with SF-539 CNS was over 25 µM; with HCT-116 colon, over 25 µM; with SNB-75 CNS, over 23.9 µM; in the assay on NCI-H23 lung, over 25 µM; in the assay on TK-10 renal, over 25 µM; in the assay on MCF7 breast, over 25 µM. In addition, the TGI in the assay with OVCAR-3 ovarian, in the assay with MALME-3M melanoma, with K-562 leukemia and in the assay with PC-3 prostate was over 25 µM throughout.
As to `CC(=O)c1c(C(F)(F)F)n([O-])c2ccc(C)cc2[n+]1=O`, the GI50 was 1.78 µM in the assay with SF-539 CNS; 3.89 µM in the assay with HCT-116 colon; 3.28 µM in the assay with SNB-75 CNS; 2.08 µM in the assay with NCI-H23 lung; 5.07 µM in the assay with TK-10 renal; 4 µM with MCF7 breast. Moreover, the GI50 is 7.09 µM in the assay on OVCAR-3 ovarian, 2.54 µM in the assay with MALME-3M melanoma, 1.1 µM with K-562 leukemia and 1.34 µM in the assay on PC-3 prostate. Also, the TGI was 5.1 µM in the assay on SF-539 CNS; over 41.1 µM in the assay on HCT-116 colon; 18.1 µM in the assay with SNB-75 CNS; 11.2 µM in the assay on NCI-H23 lung; over 50.5 µM in the assay on TK-10 renal; over 100 µM in the assay on MCF7 breast. In addition, the TGI is over 48.2 µM in the assay with OVCAR-3 ovarian, 15.6 µM with MALME-3M melanoma, 21.4 µM with K-562 leukemia and 14.1 µM with PC-3 prostate.
As to `CC(C)=CCC/C(C)=C/CC/C(C)=C/CC/C=C(\C)CC/C=C(\C)CCC(=O)Nc1ccn(C2OC(CO)C(O)C2(F)F)c(=O)n1` (centres undefined), the GI50 is 0.0268 µM in the assay on SF-539 CNS; 0.0314 µM with HCT-116 colon; 3 µM with SNB-75 CNS; 0.0324 µM with NCI-H23 lung; 3.05 µM in the assay on TK-10 renal; under 0.011 µM in the assay with MCF7 breast. The values for the GI50 in the assay with MALME-3M melanoma, in the assay with K-562 leukemia and with PC-3 prostate were 0.438 µM, 0.989 µM and 1.19 µM, respectively. The TGI stood at 0.475 µM with SF-539 CNS; 1.14 µM in the assay on HCT-116 colon; 23.3 µM in the assay on SNB-75 CNS; 12.4 µM in the assay on NCI-H23 lung; 18.8 µM in the assay on TK-10 renal; 4.34 µM in the assay with MCF7 breast. Also, the TGI in the assay with OVCAR-3 ovarian is 4.48 µM; in the assay on MALME-3M melanoma, 6.71 µM; in the assay on K-562 leukemia it was 24.9 µM; with PC-3 prostate, 20.5 µM.
For `COc1ccc2cc(-c3c(-c4ccncc4)nc(-c4ccc(S(C)=O)cc4)n3C)ccc2c1` (centres undefined), the GI50 is over 25 µM in the assay with SF-539 CNS; 19.1 µM with HCT-116 colon; over 12.8 µM with SNB-75 CNS; over 25 µM in the assay with NCI-H23 lung; over 21.8 µM in the assay on TK-10 renal; over 19.6 µM in the assay with MCF7 breast. The GI50 in the assay with OVCAR-3 ovarian was 15.3 µM; in the assay on MALME-3M melanoma, 24.5 µM; in the assay on K-562 leukemia it was 15.6 µM; with PC-3 prostate, over 21.3 µM. For the same compound, the TGI in the assay with SF-539 CNS, with HCT-116 colon, in the assay with SNB-75 CNS, with NCI-H23 lung, in the assay on TK-10 renal and in the assay with MCF7 breast was over 25 µM each time. The TGI in the assay with OVCAR-3 ovarian, in the assay with MALME-3M melanoma, in the assay on K-562 leukemia and with PC-3 prostate was over 25 µM in each case.
Consider `CC1(C)N=C(N)N=C(N)N1c1ccc(CCCCc2ccc(S(=O)(=O)F)cc2)c(Cl)c1`, for which the GI50 was 0.391 µM in the assay on SF-539 CNS; 0.0483 µM in the assay on HCT-116 colon; 0.514 µM in the assay on SNB-75 CNS; 0.363 µM in the assay with NCI-H23 lung; 0.848 µM with TK-10 renal; 0.198 µM in the assay on MCF7 breast. Moreover, the GI50 is 0.851 µM with OVCAR-3 ovarian, 12 µM with MALME-3M melanoma, 0.0628 µM in the assay on K-562 leukemia and 0.0493 µM with PC-3 prostate. For the same compound, the TGI in the assay with SF-539 CNS turned out to be 13.9 µM; with HCT-116 colon it was 18.9 µM; in the assay on SNB-75 CNS, 18.9 µM; in the assay with NCI-H23 lung, 19.5 µM; with TK-10 renal, 20.3 µM; in the assay with MCF7 breast, 14.2 µM. For the same compound, the TGI was 17.4 µM in the assay with OVCAR-3 ovarian, 35.9 µM in the assay with MALME-3M melanoma, 17.9 µM in the assay with K-562 leukemia and 15.9 µM in the assay with PC-3 prostate.
For `Cc1cc(N(CCC#N)CCC#N)ccc1/C=C1N=C(/C=C\c2ccccc2)N(c2ccc(Cl)cc2)C\1=O`, the TGI in the assay on SF-539 CNS, with HCT-116 colon, in the assay on SNB-75 CNS, in the assay on NCI-H23 lung, with TK-10 renal and in the assay on MCF7 breast was over 100 µM each time. Also, the TGI was over 100 µM with OVCAR-3 ovarian, over 72 µM in the assay with MALME-3M melanoma, over 100 µM in the assay on K-562 leukemia and over 100 µM with PC-3 prostate.
As for `COc1ccc(C(=O)N2c3ccccc3Sc3ccccc32)c(OC)c1`, the GI50 in the assay on SF-539 CNS was 0.333 µM; with HCT-116 colon, 0.452 µM; with SNB-75 CNS it was 0.209 µM; in the assay with NCI-H23 lung, 0.776 µM; in the assay on TK-10 renal, over 100 µM; with MCF7 breast, 0.45 µM. For the same compound, the GI50 with OVCAR-3 ovarian is 0.322 µM; in the assay on MALME-3M melanoma it was 0.416 µM; with K-562 leukemia it was 0.381 µM; in the assay with PC-3 prostate, 0.43 µM. The TGI is 4.37 µM in the assay with SF-539 CNS; over 100 µM in the assay with HCT-116 colon; over 100 µM in the assay with SNB-75 CNS; over 100 µM with NCI-H23 lung; over 100 µM in the assay on TK-10 renal; over 100 µM in the assay with MCF7 breast. Besides, the TGI with OVCAR-3 ovarian was 1.14 µM; with MALME-3M melanoma it was over 100 µM; with K-562 leukemia, over 100 µM; with PC-3 prostate it was over 100 µM.

The values are drawn from PubChem BioAssay (NCI).
